Test results from PMC2895357 (Journal of Medicinal Chemistry, 2010).

Columns and labels:
[1] = biological target: T1, TbGalE (UDP-galactose 4′-epimerase from Trypanosoma brucei) (Trypanosoma brucei, UniProt Q8T8E9); assay: TbGalE inhibition assay; assay type: biochemical; conditions: for Hill Slope: TbGalE potency curve
T1 sequence (Q8T8E9 1-395): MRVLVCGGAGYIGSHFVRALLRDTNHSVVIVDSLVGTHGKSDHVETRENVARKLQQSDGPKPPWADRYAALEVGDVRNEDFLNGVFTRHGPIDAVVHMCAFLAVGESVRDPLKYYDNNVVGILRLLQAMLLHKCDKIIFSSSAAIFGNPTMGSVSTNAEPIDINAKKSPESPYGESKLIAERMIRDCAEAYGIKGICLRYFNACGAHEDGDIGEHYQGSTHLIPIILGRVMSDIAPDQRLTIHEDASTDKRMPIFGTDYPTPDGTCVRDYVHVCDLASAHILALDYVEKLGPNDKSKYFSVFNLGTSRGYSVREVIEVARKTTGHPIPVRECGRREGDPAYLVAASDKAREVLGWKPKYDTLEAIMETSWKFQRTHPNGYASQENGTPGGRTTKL

[2] = Cytotoxicity assay against human MRC5 cells; assay type: cell-based; conditions: human, MRC5 cells
Trypanosoma cruzi = conditions: cited from earlier work
human MRC5 cells = assay: Cytotoxicity assay against human MRC5 cells; assay type: cell-based; conditions: human MRC5 cells, three days, Alamar Blue
cultured T. brucei = assay type: cell-based, Trypanosoma brucei; conditions: whole-cell T. brucei, three days, Alamar Blue

| Compound | Hill Slope [1] | EC50 at 3 days [2] | further results |
| --- | --- | --- | --- |
| O=C(O)c1ccccc1-c1ccccc1C(=O)Nc1ccc2c(c1)nc(O)c1ccccc12 [compound 1] | 1.8 ± 0.6 | > 50 µM |  |
| CCn1c2ccccc2c2cc(NC(=O)c3ccccc3-c3ccccc3C(=O)O)ccc21 [compound 2] | 1.2 ± 0.3 | > 50 µM |  |
| COC1C(OC(=O)c2ccc(C)[nH]2)C(O)C(Oc2ccc3c(O)c(NC(=O)c4ccc(O)c(CC=C(C)C)c4)c(=O)oc3c2Cl)OC1(C)C (stereo not drawn) [compound 3, clorobiocin] | 2.1 ± 0.5 | > 50 µM | inhibition of growth of Trypanosoma cruzi (Trypanosoma cruzi): inhibit the growth |
| O=C(O)c1ccccc1-c1ccccc1C(=O)Nc1ccc2c(c1)C(=O)c1ccccc1-2 [compound 5] |  | > 50 µM |  |
| O=C(O)c1ccccc1-c1ccccc1C(=O)Nc1ccc2c(c1)Cc1cc(F)ccc1-2 [compound 10] |  | > 50 µM |  |
| O=C(O)c1ccccc1-c1ccccc1C(=O)Nc1cc2c3ccccc3ccc2c2ccccc12 [compound 12] |  | > 50 µM |  |
| O=C(O)c1cc(Cl)ccc1-c1ccc(Cl)cc1C(=O)Nc1ccc2c(c1)Cc1ccccc1-2 [compound 13] |  | > 50 µM |  |
| O=C(O)c1cc(Cl)ccc1-c1ccc(Cl)cc1C(=O)NC1=CC2=C(CC1)c1c(Cl)cc(Cl)cc1C2 [compound 14] |  |  | MRC5 EC50 (human MRC5 cells): demonstrated inhibition of MRC5 growth; Tb EC50 (cultured T. brucei): no activity |
| CO[C@@H]1[C@@H](OC(N)=O)[C@@H](O)[C@H](Oc2ccc3c(O)c(NC(=O)c4ccc(O)c(CC=C(C)C)c4)c(=O)oc3c2C)OC1(C)C [novobiocin, reference compound] |  |  | inhibition at 10 µM ([1]; read-out: TbGalE inhibition at 10 μM): ≤ 50%; inhibition of growth of Trypanosoma cruzi (Trypanosoma cruzi): inhibits the growth |
